According to patent US8039648B2, “Compounds used as dyes comperable to Alexa Fluor 350 dyes” (Pierce Biotechnology, Inc., priority 2009, dated 2011):
Structures can show the parent of a compound that is named as a salt.

Key:
[1] = Absorbance spectra of the NHS dyes in PBS buffer (Example 8); format: physicochemical; settings: PBS buffer pH 7.2, 10 mg/ml in DMF diluted 1:1000
Experimental: Each of NHS-AMCA (MW=330 g/mole), V07-09111-NHS “8-isomer” (MW=874.1 g/mole), V07-0144-NHS “6-isomer” (MW=874.1 g/mole) and Alexa Fluor 350-NHS, Molecular Probes (Product #A10168) were reconstituted in DMF at 10 mg/ml and then diluted 1:1000 in PBS buffer (100 mM sodium phosphate, 150 mM NaCl; pH 7.2). Absorbance of the sample was evaluated from 440 nm to 240 nm on a UV Cary Spectrophotometer (Varian).

[2] = system: biotin and mouse IgG coated white 96-well plates; assay: Plate-based functional testing of streptavidin and GAM conjugates (Example 12); format: binding; settings: for signal sensitivities and intensities of bound conjugates compared to conjugates made with AMCA-NHS: GAM and SA conjugates made with the dye, 4 μg/ml, ex 346/em 442
Experimental: Streptavidin and GAM conjugates made in Example 11 were analyzed on biotin and mouse IgG coated white 96-well plates. The plates were coated by making a 1:1 serial dilution of biotinylated bovine serum albumin (BSA, Thermo Scientific) and mouse IgG with starting concentrations of 2 μg/ml and 10 μg/ml, respectively. One hundred μl of each dilution was added per well. The last column on each plate was considered blank (PBS buffer only). The plates were incubated overnight at 4° C. and then blocked by washing 3×200 μl with SuperBlock Blocking Buffer in PBS (Thermo Scientific). Plates were washed 2×200 μl PBS-Surfact-Amp 20 and 1×100 μl PBS. All of the conjugates were diluted to 4 μg/ml in PBS buffer, added to the plates (100 μl/well) and incubated for one hour at room temperature (RT) (about 20° C. to about 22° C.). The plates were then washed 2×200 μl with PBS containing 0.05% Surfact-Amp 20 and 1×200 μl PBS. Finally 100 μl PBS buffer was added to the wells. The fluorescence intensity of the bound conjugate was measured on Tecan Safire using optimal Alexa Fluor 350 setting (ex 346/em 442) and optimal gain. FIGS. 7A and 7B show relative fluorescent units (RFU) and signal to background ratios (S/B), respectively, of goat anti-mouse antibodies (GAM) conjugated to amino-methyl-coumarin-acetate (AMCA), V07-09111-NHS, V07-09144-NHS, and Alexa Fluor 350-NHS. FIGS. 7C and 7D show RFU and S/B, respectively, of streptavidin (SA) conjugated to AMCA, V07-09111, V07-09144, and Alexa Fluor 350.

[3] = UV-Vis absorption and emission maxima given with the synthesis examples; format: physicochemical
Lamin A = assay: Immunofluorescence detection of Lamin A in HeLa cells with dye-GAM conjugates (Example 13); format: cell-based, human; settings: GAM conjugates made with the dye, 4 μg/ml, similar molar excesses
Experimental: Lamin A was stained in HeLa cells to compare […]-09111-GAM and […]-09144GAM to AMCA-GAM and Alexa Fluor 350-GAM. HeLa cells were seeded at about 10,000 cells/well in a 96-well clear bottom collagen coated tissue culture plate (BD Falcon BioCoat collagen) and cultured overnight. To fix the cells, the medium was removed and replaced at 100 μl/well with freshly prepared 4% paraformaldehyde (EMS Product #15710-S) diluted in 8 mM sodium phosphate, 2 mM potassium phosphate, 140 mM sodium chloride and 10 mM potassium chloride (PBS pH 7.4) and the cells were incubated at room temperature for 15 minutes. After 15 minutes, the cells were washed 3 times with PBS. After removal of PBS the cells were permeabilized with 100 μl/well of PBS containing 0.1% Surfact-Amps X-100. The permeabilization was carried out at room temperature (RT) for 15 minutes and then the cells were washed two times with PBS. The cells were blocked at RT for 30 minutes with (100 μl/well) PBS containing 0.1% Triton X-100 and supplemented with 2% of BlockerTM BSA (Thermo Scientific). […] The images shown in FIGS. 8A-H were acquired using the appropriate shift free optical filter set with a […] on Zeiss Axio Observer Z1 fluorescence microscope using an ORCA-ER-1394 Hamamatsu, CCD Digital Camera and the AxioVison Release 4.7 Software. […]

[4] = Absorption and emission spectra in water and ethanol (Example 9); format: physicochemical; settings: for emission spectrum maximum: excitation 345 nm
Experimental: Absorption spectra of compounds V07-09111 and V07-09144 (concentrations between 10 μM and 50 μM) in water and ethanol (spectral grade) were recorded (Analytik Jena Specord 205 absorption spectrometer, quartz cuvettes with a pathlength of 1 cm). For emission spectra determination, the solutions were diluted in PBS (100 mM, pH 7.4, 100 mM sodium chloride, 5 mM sodium azide) to an absorbance of around 0.1 at a 1 cm pathlength; emission spectra were recorded on a JASCO FP-6600 fluorescence spectrometer; excitation wavelength 345 nm, excitation and emission slits were 3 nm and 6 nm, respectively. Both absorption and emission spectra were normalized to the maxima for presentation in FIGS. 2, 3, 4, and 5.
FIGS. 2 and 3 show the absorbance and emission spectra of V07-09144 in water and ethanol, respectively. FIGS. 4 and 5 show the absorbance and emission spectra of V07-09111 in water and ethanol, respectively. The absorbance and emission spectra of V07-09111 are 350 nm and 430 nm in water, and 351 nm and 443 nm in ethanol, respectively. The absorbance and emission spectra of V07-09144 are 350 nm and 440 nm in water, and 351 nm and 443 nm in ethanol, respectively.

Row | SMILES | absorbance maxima (AbsMax) [1] | signal sensitivities and intensities of bound conjugates compared to conjugates made with AMCA-NHS [2] | λem ([3]; UV-Vis (PBS)) | λmax ([3]; UV-Vis (PBS)) | also measured
1 | Cc1c(CC(=O)ON2C(=O)CCC2=O)c(=O)oc2cc(N)c(S(=O)(=O)O)cc12 [Alexa Fluor 350-NHS, reference compound] | 345 nm | higher signal sensitivities and intensities |  |  | 
2 | CCOC(=O)CCC1CCc2c1c1ccc(NC(=O)OCC)cc1oc2=O (stereo not drawn) [V07-09096, 3-(7-ethoxycarbonylamino-4-oxo-1,2,3,4-tetrahydro-cyclopenta[c]chromen-1-yl)propionic acid ethylester] |  |  |  |  | ε ([3]; in methanol): 23000 L/mol/cm; λem ([3]; in methanol): 393 nm; λmax ([3]; in methanol): 328 nm
3 | Nc1cc2oc(=O)c3c(c2cc1S(=O)(=O)O)C(C(CC(=O)O)S(=O)(=O)O)CC3 (stereo not drawn) [V07-09142, 3-(7-amino-4-oxo-8-sulfo-1,2,3,4-tetrahydro-cyclopenta[c]chromen-1-yl)-3-sulfo propionic acid bis sodium salt] |  |  | 440 nm | 349 nm | 
4 | Nc1cc2oc(=O)c3c(c2cc1S(=O)(=O)O)C(C(CC(=O)NCCCC(=O)ON1C(=O)CCC1=O)S(=O)(=O)O)CC3 (stereo not drawn) [V07-09144-NHS] | 347 nm | higher signal sensitivities and intensities |  |  | specificity of staining and background compared to NHS-AMCA or NHS-Alexa Fluor 350 conjugates (Lamin A): higher specificity of staining for the target with lower background
5 | Cc1c(CC(=O)ON2C(=O)CCC2=O)c(=O)oc2cc(N)ccc12 [NHS-AMCA, succinimidyl-7-amino-4-methylcoumarin-3-acetate, reference compound] | 349 nm |  |  |  | 
6 | Nc1ccc2c3c(c(=O)oc2c1S(=O)(=O)O)CCC3C(CC(=O)NCCCC(=O)O)S(=O)(=O)O (stereo not drawn) [V07-09111, 4-[3-(7-amino-4-oxo-6-sulfo-1,2,3,4-tetrahydro-cyclopenta[c]chromen-1-yl)-3-sulfo-propionylamino]-butyric acid] |  |  | 430 nm | 352 nm | absorbance spectrum maximum ([4]; in ethanol): 351 nm; emission spectrum maximum ([4]; in ethanol): 443 nm; absorbance spectrum maximum ([4]; in water): 350 nm; emission spectrum maximum ([4]; in water): 430 nm
7 | Nc1c(S(=O)(=O)O)cc2c3c(c(=O)oc2c1S(=O)(=O)O)CCC3C(CC(=O)O)S(=O)(=O)[O-].[Na+] (stereo not drawn) [V07-09140, 3-(7-amino-4-oxo-6,8-disulfo-1,2,3,4-tetrahydro-cyclopenta[c]chromen-1-yl)-3-sulfo-propionic acid tris sodium salt] |  |  | 435 nm | 350 nm | 
8 | Nc1ccc2c3c(c(=O)oc2c1S(=O)(=O)O)CCC3C(CC(=O)NCCCC(=O)ON1C(=O)CCC1=O)S(=O)(=O)O (stereo not drawn) [V07-09111-NHS, 4-[3-(7-amino-4-oxo-6-sulfo-1,2,3,4-tetrahydro-cyclopenta[c]chromen-1-yl)-3-sulfo-propionylamino]-butyric acid NHS ester bis diisopropyethylammonium salt] | 352 nm | higher signal sensitivities and intensities | 430 nm | 352 nm | specificity of staining and background compared to NHS-AMCA or NHS-Alexa Fluor 350 conjugates (Lamin A): higher specificity of staining for the target with lower background
9 | Nc1ccc2c3c(c(=O)oc2c1S(=O)(=O)O)CCC3C(CC(=O)O)S(=O)(=O)[O-].[Na+] (stereo not drawn) [V07-09089, 3-(7-amino-4-oxo-6-sulfo-1,2,3,4-tetrahydro-cyclopenta[c]chromen-1-yl)-3-sulfopropionic acid bis sodium salt] |  |  | 429 nm | 352 nm | binding in a functional plate assay among the DY-350 dyes ([2]; comparison among the DY-350 dyes): lower binding in a functional plate assay
